# Test results reported in US11426412B2, “Imidazo-pyridine compounds as PAD inhibitors” (JUBILANT EPIPAD LLC, priority 2017, dated 2022).
# Counter-ions that a name gives are not always drawn.
# How the values were obtained:
# [1] = biological target: T1, PAD4 (Homo sapiens (Human), UniProt Q9UM07); assay: FP binding assay; details: for actively inhibiting PAD4 enzyme activity, FP Binding assay: summary of Table 1
# [2] = biological target: T1, PAD4; assay: Ammonia release biochemical assay (citrullination)
# [3] = Table 1, class A, read-out: IC50 value, ammonia release biochemical assay
# [4] = read-out: NH3 release biochemical assay PAD4 IC50
# T1 sequence (Q9UM07 whole entry): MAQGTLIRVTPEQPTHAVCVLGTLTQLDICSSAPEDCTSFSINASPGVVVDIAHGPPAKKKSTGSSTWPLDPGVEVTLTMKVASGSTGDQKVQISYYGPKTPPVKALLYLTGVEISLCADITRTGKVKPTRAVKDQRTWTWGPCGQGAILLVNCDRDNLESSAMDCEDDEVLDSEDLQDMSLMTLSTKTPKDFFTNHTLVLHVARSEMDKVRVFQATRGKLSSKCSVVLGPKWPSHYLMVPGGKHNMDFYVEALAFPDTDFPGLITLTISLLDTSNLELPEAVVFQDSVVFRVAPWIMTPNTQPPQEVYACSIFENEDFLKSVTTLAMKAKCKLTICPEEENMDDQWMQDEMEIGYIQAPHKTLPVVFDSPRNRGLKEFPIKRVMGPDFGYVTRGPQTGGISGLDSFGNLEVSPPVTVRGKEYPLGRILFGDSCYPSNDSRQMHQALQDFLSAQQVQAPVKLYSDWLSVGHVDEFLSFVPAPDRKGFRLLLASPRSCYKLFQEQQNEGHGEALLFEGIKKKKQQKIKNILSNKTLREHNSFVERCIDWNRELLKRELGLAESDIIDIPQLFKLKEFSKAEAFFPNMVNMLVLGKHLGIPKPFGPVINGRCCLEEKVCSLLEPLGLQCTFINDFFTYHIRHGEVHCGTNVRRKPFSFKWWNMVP
IC50 [1] [nM],"actively inhibiting PAD4 enzyme activity, FP Binding assay [1]","IC50 [2, 3] [nM]","IC50 [2, 4] [nM]",Compound
–,–,–,< 1000,"Cc1c(-c2cc3cc(F)ccc3n2Cc2ccncc2)nc2cc(C(=O)N3CCC[C@@H](N)C3)ccn12 [Compound 74, (R)-(3-aminopiperidin-1-yl)(2-(5-fluoro-1-(pyridin-4-ylmethyl)-1H-indol-2-yl)-3-methylimidazo[1,2-a]pyridin-7-yl)methanone]"
–,–,–,< 1000,"COc1ccc(Cn2c(-c3nc4cc(C(=O)N5CCC[C@@H](N)C5)ccn4c3C)cc3cc(F)ccc32)cc1 [Compound 75, (R)-(3-aminopiperidin-1-yl)(2-(5-fluoro-1-(4-methoxybenzyl)-1H-indol-2-yl)-3-methylimidazo[1,2-a]pyridin-7-yl)methanone]"
–,–,–,< 1000,"Cc1c(-c2cc3cc(F)ccc3n2Cc2ccc(F)cc2)nc2cc(C(=O)N3CCC[C@@H](N)C3)ccn12 [Compound 76, (R)-(3-aminopiperidin-1-yl)(2-(5-fluoro-1-(4-fluorobenzyl)-1H-indol-2-yl)-3-methylimidazo[1,2-a]pyridin-7-yl)methanone]"
–,–,–,< 1000,"Cc1c(-c2cc3cccc(Cl)c3n2Cc2ccc(F)cc2)nc2cc(C(=O)N3CCC[C@@H](N)C3)ccn12 [Compound 77, (R)-(3-aminopiperidin-1-yl)(2-(7-chloro-1-(4-fluorobenzyl)-1H-indol-2-yl)-3-methylimidazo[1,2-a]pyridin-7-yl)methanone]"
–,–,–,< 1000,"Cc1c(-c2cc3ccccc3n2CC(F)F)nc2cc(C(=O)N3CCC[C@@H](N)C3)ccn12 [Compound 78, (R)-(3-aminopiperidin-1-yl)(2-(1-(2,2-difluoroethyl)-1H-indol-2-yl)-3-methylimidazo[1,2-a]pyridin-7-yl)methanone Trifluoroacetic Acid Salt]"
–,–,–,< 1000,"Cc1c(-c2cc3ccccc3n2Cc2ccc(F)cn2)nc2cc(C(=O)N3CCC[C@@H](N)C3)ccn12 [Compound 79, (R)-(3-aminopiperidin-1-yl)(2-(1-((5-fluoropyridin-2-yl)methyl)-1H-indol-2-yl)-3-methylimidazo[1,2-a]pyridin-7-yl)methanone]"
–,–,–,< 1000,"COc1ccc2cc(-c3nc4cc(C(=O)N5CCC[C@@H](N)C5)ccn4c3C)n(Cc3ccc(F)cc3)c2c1 [Compound 80, (R)-(3-aminopiperidin-1-yl)(2-(1-(4-fluorobenzyl)-6-methoxy-1H-indol-2-yl)-3-methylimidazo[1,2-a]pyridin-7-yl)methanone]"
–,–,≤ 1000,< 1000,"COc1ccc2cc(-c3nc4cc(C(=O)N5CCC[C@@H](N)C5)ccn4c3C)n(CC(C)C)c2c1 [Compound 82, (R)-(3-aminopiperidin-1-yl)(2-(1-isobutyl-6-methoxy-1H-indol-2-yl)-3-methylimidazo[1,2-a]pyridin-7-yl)methanone]"
–,–,≤ 1000,< 1000,"COc1ccc2cc(-c3nc4cc(C(=O)N5CCC[C@@H](N)C5)ccn4c3C)n(CC(F)F)c2c1 [Compound 83, (R)-(3-aminopiperidin-1-yl)(2-(1-(2,2-difluoroethyl)-6-methoxy-1H-indol-2-yl)-3-methylimidazo[1,2-a]pyridin-7-yl)methanone]"
–,–,≤ 1000,< 1000,"COc1cc(Cn2c(-c3nc4cc(C(=O)N5CCC[C@@H](N)C5)ccn4c3C)cc3ccccc32)ccc1F [Compound 85, (R)-(3-aminopiperidin-1-yl)(2-(1-(4-fluoro-3-methoxybenzyl)-1H-indol-2-yl)-3-methylimidazo[1,2-a]pyridin-7-yl)methanone]"

# Second part, the compound before the results:
Compound,IC50 [1] [nM],"actively inhibiting PAD4 enzyme activity, FP Binding assay [1]","IC50 [2, 3] [nM]","IC50 [2, 4] [nM]"
"Cc1c(-c2cc3ccccc3n2Cc2ccc(F)cc2)nc2cc(C(=O)N3CCC[C@@H](N)C3)ccn12 [Compound 13, (R)-(3-Aminopiperidin-1-yl)(2-(1-(4-fluorobenzyl)-1H-indol-2-yl)-3-methylimidazo[1,2-a]pyridin-7-yl)methanone]",< 1000,actively inhibiting PAD4 enzyme activity,≤ 1000,< 1000
"Cc1c(-c2cc3ccccc3n2Cc2ccccn2)nc2cc(C(=O)N3CCC[C@@H](N)C3)ccn12 [Compound 16, (R)-(3-Aminopiperidin-1-yl)(3-methyl-2-(1-(pyridin-2-ylmethyl)-1H-indol-2-yl)imidazo[1,2-a]pyridin-7-yl)methanone]",< 1000,actively inhibiting PAD4 enzyme activity,–,< 1000
"COc1ccc2cc(-c3nc4cc(C(=O)N5CCC[C@@H](N)C5)ccn4c3C)n(CC3CC3)c2c1 [Compound 23, (R)-(3-Aminopiperidin-1-yl)(2-(1-(cyclopropylmethyl)-6-methoxy-1H-indol-2-yl)-3-methylimidazo[1,2-a]pyridin-7-yl)methanone]",< 1000,actively inhibiting PAD4 enzyme activity,–,< 1000
"Cc1c(-c2cc3ccc(F)cc3n2CC2CC2)nc2cc(C(=O)N3CCC[C@@H](N)C3)ccn12 [Compound 28, (R)-(3-Aminopiperidin-1-yl)(2-(1-(cyclopropylmethyl)-6-fluoro-1H-indol-2-yl)-3-methylimidazo[1,2-a]pyridin-7-yl)methanone]",< 1000,–,–,< 1000
"Cc1c(-c2cc3cc(F)ccc3n2CC2CC2)nc2cc(C(=O)N3CCC[C@@H](N)C3)ccn12 [Compound 29, (R)-(3-Aminopiperidin-1-yl)(2-(1-(cyclopropylmethyl)-5-fluoro-1H-indol-2-yl)-3-methylimidazo[1,2-a]pyridin-7-yl)methanone]",< 1000,–,–,< 1000
"Cc1cccc2cc(-c3nc4cc(C(=O)N5CCC[C@@H](N)C5)ccn4c3C)n(CC3CC3)c12 [Compound 30, (R)-(3-Aminopiperidin-1-yl)(2-(1-(cyclopropylmethyl)-7-methyl-1H-indol-2-yl)-3-methylimidazo[1,2-a]pyridin-7-yl)methanone]",< 1000,–,–,< 1000
"N[C@@H]1CCCN(C(=O)c2ccn3c(-c4ccccc4)c(-c4cc5ccccc5n4CC4CC4)nc3c2)C1 [Compound 32, (R)-(3-Aminopiperidin-1-yl)(2-(1-(cyclopropylmethyl)-1H-indol-2-yl)-3-phenylimidazo[1,2-a]pyridin-7-yl)methanone]",> 10000,–,–,> 10000
"Cc1c(-c2cc3ccccc3n2Cc2ccsc2)nc2cc(C(=O)N3CCC[C@@H](N)C3)ccn12 [Compound 36, (R)-(3-aminopiperidin-1-yl)(3-methyl-2-(1-(thiophen-3-ylmethyl)-1H-indol-2-yl)imidazo[1,2-a]pyridin-7-yl)methanone]",< 1000,actively inhibiting PAD4 enzyme activity,–,< 1000
"CCn1c(-c2nc3cc(C(=O)N4CCC[C@@H](N)C4)ccn3c2C)cc2cc(F)ccc21 [Compound 39, (R)-(3-aminopiperidin-1-yl)(2-(1-ethyl-5-fluoro-1H-indol-2-yl)-3-methylimidazo[1,2-a]pyridin-7-yl)methanone]",< 1000,actively inhibiting PAD4 enzyme activity,≤ 1000,< 1000
"Cc1c(-c2cc3ccc(F)cc3n2CC(C)C)nc2cc(C(=O)N3CCC[C@@H](N)C3)ccn12 [Compound 73, (R)-(3-aminopiperidin-1-yl)(2-(6-fluoro-1-isobutyl-1H-indol-2-yl)-3-methylimidazo[1,2-a]pyridin-7-yl)methanone]",–,–,–,< 1000
